Measurements reported in ChEMBL document CHEMBL4346671, “Synthesis and bioevaluation of diarylpyrazoles as antiproliferative agents” (Eur J Med Chem, 2019).
Activity calls are given as the source filed them. The calls are words filed in the database; no cut-off is given here.

Key:
HT-1080 = experiment: Antiproliferative activity against human HT1080 cells measured after 72 hrs by MTT assay; assay type: functional, cell-based; details: HT-1080, 72 h
SGC-7901 [1] = experiment: Antiproliferative activity against human SGC7901 cells measured after 72 hrs by MTT assay; assay type: functional, cell-based; details: SGC-7901, 72 h
KB = experiment: Antiproliferative activity against human KB cells measured after 72 hrs by MTT assay; assay type: functional, cell-based
Tubulin (Homo sapiens) [2] = molecular target: T1, Tubulin (Homo sapiens) (UniProt P68371+Q9H4B7+P0DPH7+P68366+Q13509+Q71U36+P04350+Q3ZCM7+P07437+P68363+Q9BQE3+Q6PEY2+Q13885+Q9BVA1+Q9BUF5); experiment: Inhibition of microtubule formation in human SGC7901 cells assessed as mitotic catastrophe at 2 fold IC50 concentration measured after 24 hrs by DAPI staining based fluorescence microscopy; assay type: cell-based
Tubulin (Homo sapiens) [3] = molecular target: T1, Tubulin (Homo sapiens); experiment: Induction of microtubule depolymerization in human SGC7901 cells assessed as change in microtubule morphology at 2 fold antiproliferative IC50 measured after 24 hrs by DAPI staining based fluorescence microscopy; assay type: cell-based
Tubulin = Tubulin (Sus scrofa, UniProt P02554+P02550); experiment: Inhibition of porcine brain tubulin polymerization preincubated before GTP addition and measured at 1 min intervals for 90 mins by fluorescence based assay
SGC-7901 [4] = experiment: Cell cycle arrest in human SGC7901 cells assessed as increase in cell population at sub-G1 phase at 2 fold IC50 concentration measured after 48 hrs by propidium iodide staining based FACScan flow cytometry; assay type: functional
SGC-7901 [5] = experiment: Cell cycle arrest in human SGC7901 cells assessed as increase in cell population at sub-G1 phase at 2 fold IC50 concentration measured after 72 hrs by propidium iodide staining based FACScan flow cytometry; assay type: functional
SGC-7901 [6] = experiment: Cell cycle arrest in human SGC7901 cells assessed as accumulation of cell population in G2/M phase at 2 fold IC50 concentration for 12 to 72 hrs by propidium iodide staining based FACScan flow cytometry; assay type: functional; details: TDE = time-dependent effect
SGC-7901 [7] = experiment: Cell cycle arrest in human SGC7901 cells assessed as increase in cell population at sub-G1 phase at 2 fold IC50 concentration measured after 36 hrs by propidium iodide staining based FACScan flow cytometry; assay type: functional
SGC-7901 [8] = experiment: Cell cycle arrest in human SGC7901 cells assessed as decrease in cell population at G2/M phase at 2 fold IC50 concentration measured after 72 hrs by propidium iodide staining based FACScan flow cytometry; assay type: functional
SGC-7901 [9] = experiment: Cell cycle arrest in human SGC7901 cells assessed as increase in cell population at G2/M phase at 2 fold IC50 concentration measured after 12 hrs by propidium iodide staining based FACScan flow cytometry; assay type: functional
Tubulin (Sus scrofa) [10] = molecular target: T2, Tubulin (Sus scrofa) (UniProt P02554+P02550); experiment: Inhibition of porcine brain tubulin polymerization at 3 to 20 uM preincubated before GTP addition and measured at 1 min intervals for 90 mins by fluorescence based assay
SGC-7901 [11] = experiment: Cell cycle arrest in human SGC7901 cells assessed as increase in cell population at G2/M phase at 2 fold IC50 concentration measured after 24 hrs by propidium iodide staining based FACScan flow cytometry; assay type: functional
SGC-7901 [12] = experiment: Cell cycle arrest in human SGC7901 cells assessed as decrease in cell population at G2/M phase at 2 fold IC50 concentration measured after 48 hrs by propidium iodide staining based FACScan flow cytometry; assay type: functional
SGC-7901 [13] = experiment: Induction of polyploidy in human SGC7901 cells at 2 fold IC50 concentration measured after 72 hrs by propidium iodide staining based FACScan flow cytometry; assay type: functional, cell-based
SGC-7901 [14] = experiment: Cell cycle arrest in human SGC7901 cells assessed as decrease in cell population at G2/M phase at 2 fold IC50 concentration measured after 36 hrs by propidium iodide staining based FACScan flow cytometry; assay type: functional
Tubulin (Homo sapiens) [15] = molecular target: T1, Tubulin (Homo sapiens); experiment: Inhibition of microtubule formation in human SGC7901 cells at 2 fold IC50 concentration measured after 24 hrs by DAPI staining based fluorescence microscopy; assay type: cell-based
Tubulin (Sus scrofa) [16] = molecular target: T2, Tubulin (Sus scrofa); details: 4 uM
Description: Inhibition of porcine brain tubulin polymerization at 4 uM preincubated before GTP addition and measured at 1 min intervals for 90 mins by fluorescence based assay

T2 sequence (P02550 whole entry, looked up): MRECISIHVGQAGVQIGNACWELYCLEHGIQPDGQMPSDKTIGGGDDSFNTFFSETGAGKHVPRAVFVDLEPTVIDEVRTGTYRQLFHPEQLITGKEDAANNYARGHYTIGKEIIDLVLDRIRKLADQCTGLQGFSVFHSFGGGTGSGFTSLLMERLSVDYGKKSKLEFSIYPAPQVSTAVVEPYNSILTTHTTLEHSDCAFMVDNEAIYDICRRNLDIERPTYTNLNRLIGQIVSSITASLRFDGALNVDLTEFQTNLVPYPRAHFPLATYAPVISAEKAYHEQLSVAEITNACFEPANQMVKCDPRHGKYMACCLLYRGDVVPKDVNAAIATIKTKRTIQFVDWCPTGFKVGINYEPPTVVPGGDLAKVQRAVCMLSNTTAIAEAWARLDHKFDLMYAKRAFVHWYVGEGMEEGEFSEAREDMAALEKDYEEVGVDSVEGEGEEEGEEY
T2 sequence (P02554 whole entry, looked up): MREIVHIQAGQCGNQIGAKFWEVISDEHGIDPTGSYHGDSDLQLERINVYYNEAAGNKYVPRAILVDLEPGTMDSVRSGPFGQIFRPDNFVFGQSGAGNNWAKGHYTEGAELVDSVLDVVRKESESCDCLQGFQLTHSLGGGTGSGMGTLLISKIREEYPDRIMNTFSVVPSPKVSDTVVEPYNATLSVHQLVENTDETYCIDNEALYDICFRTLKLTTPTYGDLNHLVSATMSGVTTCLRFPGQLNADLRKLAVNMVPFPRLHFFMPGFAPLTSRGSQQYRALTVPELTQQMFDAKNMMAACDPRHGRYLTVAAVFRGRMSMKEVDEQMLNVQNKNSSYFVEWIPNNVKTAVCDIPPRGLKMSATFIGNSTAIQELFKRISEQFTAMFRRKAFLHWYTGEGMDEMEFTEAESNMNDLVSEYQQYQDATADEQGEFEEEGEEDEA

Structure (SMILES) | IC50 (HT-1080) [µM] | IC50 (SGC-7901 [1]) [µM] | IC50 (KB) [µM] | other results
CCOc1ccc(-c2n[nH]cc2-c2cc(OC)c(OC)c(OC)c2)cc1 | 0.021 | 0.015 | 0.065 | –
COc1ccc(-c2n[nH]cc2-c2cc(OC)c(OC)c(OC)c2)cc1OCc1ccccc1 | 20.8 | 28.2 | 86.2 | –
COc1ccc(-c2n[nH]cc2-c2cc(OC)c(OC)c(OC)c2)cc1OC | 1.92 | 3.81 | 0.62 | –
COc1ccc(-c2[nH]ncc2-c2cc(OC)c(OC)c(OC)c2)cc1O | 0.023 | 0.032 | 0.06 | –
COc1ccc(-c2n[nH]cc2-c2cc(OC)c(OC)c(OC)c2)cc1 | 0.026 | 0.044 | 0.025 | –
COc1ccc(-c2cn[nH]c2-c2cc(OC)c(OC)c(OC)c2)cc1O | 0.03 | 0.031 | 0.023 | –
CCOc1ccc(-c2c[nH]nc2-c2cc(OC)c(OC)c(OC)c2)cc1 | 0.017 | 0.03 | 0.035 | –
COc1cccc(-c2c[nH]nc2-c2cc(OC)c(OC)c(OC)c2)c1 | 4.07 | 2.2 | 1.5 | –
COc1cc(-c2n[nH]cc2-c2ccc(OCc3ccccc3)cc2)cc(OC)c1OC | 8.13 | 13 | 6.72 | –
COc1ccc(-c2c[nH]nc2-c2cc(OC)c(OC)c(OC)c2)cc1 | 0.08 | 0.18 | 0.072 | –
COc1ccc(-c2c[nH]nc2-c2cc(OC)c(OC)c(OC)c2)cc1OCc1ccccc1 | 10 | 9.26 | 7.1 | –
COc1cc(-c2n[nH]cc2-c2ccc(O)cc2)cc(OC)c1OC | 10 | 15.4 | 8.47 | –
COc1ccc(/C=C\c2cc(OC)c(OC)c(OC)c2)cc1O [COMBRETASTATIN A4] | 0.051 | 0.13 | 0.25 | Activity (Tubulin (Homo sapiens) [3]): Active; inhibition (Tubulin (Sus scrofa) [16]): Active; Activity (SGC-7901 [9]): Active; Activity (SGC-7901 [11]): Active
COc1ccc(-c2c[nH]nc2-c2cc(OC)c(OC)c(OC)c2)cc1OC | 4.84 | 36.5 | 5.44 | –
COc1ccc(-c2c(-c3cc(OC)c(OC)c(OC)c3)cnn2C(C)=O)cc1OCc1ccccc1 | 18.4 | 30.1 | 84.2 | –
COc1cc(-c2n[nH]cc2-c2ccc(F)c(F)c2)cc(OC)c1OC | 19.3 | 14 | 32.8 | –

Continued, in another order:

IC50 (HT-1080) [µM] | IC50 (SGC-7901 [1]) [µM] | IC50 (KB) [µM] | Structure (SMILES) | other results
0.021 | 0.2 | 0.11 | CCOc1ccc(-c2c(-c3cc(OC)c(OC)c(OC)c3)cnn2C(C)=O)cc1 | –
0.014 | 0.031 | 0.023 | COc1ccc(-c2c(-c3cc(OC)c(OC)c(OC)c3)cnn2C(C)=O)cc1 | –
0.096 | 0.013 | 0.028 | COc1ccc(-c2cnn(C(C)=O)c2-c2cc(OC)c(OC)c(OC)c2)cc1 | –
1.33 | 4.82 | 4.58 | COc1ccc(-c2cnn(C(C)=O)c2-c2cc(OC)c(OC)c(OC)c2)cc1OC | –
19.5 | 13.7 | 10.8 | COc1cc(-c2c(-c3ccc(OC(F)(F)F)cc3)cnn2C(C)=O)cc(OC)c1OC | –
0.012 | 0.0093 | 0.022 | COc1ccc(-c2c(-c3cc(OC)c(OC)c(OC)c3)cnn2C(C)=O)cc1O | inhibition (Tubulin (Homo sapiens) [2]): Active; Activity (Tubulin (Homo sapiens) [3]): Active; IC50 (Tubulin): 7.73 µM; Activity (SGC-7901 [4]): Active; Activity (SGC-7901 [5]): Active; Activity (SGC-7901 [6]): Tde; Activity (SGC-7901 [7]): Active; Activity (SGC-7901 [8]): Active; Activity (SGC-7901 [9]): Active; inhibition (Tubulin (Sus scrofa) [10]): Dose-dependent effect; Activity (SGC-7901 [11]): Active; Activity (SGC-7901 [12]): Active; Activity (SGC-7901 [13]): Active; Activity (SGC-7901 [14]): Active; inhibition (Tubulin (Homo sapiens) [15]): Active
12.2 | 10.4 | 6.72 | COc1ccc(-c2cnn(C(C)=O)c2-c2cc(OC)c(OC)c(OC)c2)cc1OCc1ccccc1 | –
1.34 | 1.34 | 2.87 | COc1cc(-c2n[nH]cc2-c2ccc(OC(F)(F)F)cc2)cc(OC)c1OC | –
44.9 | 14.4 | 129 | COc1cc(-c2c(-c3ccc(OCc4ccccc4)cc3)cnn2C(C)=O)cc(OC)c1OC | –
1.21 | 2.03 | 0.7 | COc1ccc(-c2c(-c3cc(OC)c(OC)c(OC)c3)cnn2C(C)=O)cc1OC | –
0.019 | 0.015 | 0.036 | CCOc1ccc(-c2cnn(C(C)=O)c2-c2cc(OC)c(OC)c(OC)c2)cc1 | –
2.52 | 4.87 | 5.08 | COc1cc(-c2c(-c3ccc(O)cc3)cnn2C(C)=O)cc(OC)c1OC | –
0.017 | 0.015 | 0.033 | COc1ccc(-c2cnn(C(C)=O)c2-c2cc(OC)c(OC)c(OC)c2)cc1O | –
